Measurements taken from patent publication US7935335B2, “Strains belonging to the genus Paenibacillus and method of controlling plant disease by using these strains or culture thereof” (Kaken Pharmaceutical Co., Ltd., priority 2004, dated 2011).

Columns and labels:
[1] = test system: parsley cultured cells; test: Activity of inducing disease resistance: elicitor responsiveness of parsley cultured cells, phytoalexin detection by fluorescence; format: cell-based; conditions: 2.5 μM
Description: The activity of inducing disease resistance in plant of compound 1 and compound 2 according to the present invention was also evaluated according to the method of Siegrist, J. et al. The results are shown in Table 9.
(§1) The activity of inducing disease resistance in plant of each of compound 1 and compound 2 was evaluated in the same manner as in Evaluation Example 1 by adopting the method practiced in Evaluation Example 1, i.e., the method in which the elicitor responsiveness of parsley cultured cells was measured by the detection of phytoalexin using fluorescence.
as §1, with “inducing” for “inducing disease”, “resistance to” for “resistance in”, “plant diseases” for “plant”, “compound 3” for “compound 1”, “compound 4” for “compound 2”

[2] = test system: Pseudomonas syringae pv. lachrymans; test: Test Example 5: control effect of a culture broth on melon bacterial blight; format: in vivo; conditions: foliar spray of 2 mL of 2 ppm solution
Description: Each of nursery trays was filled with Aisai No. 1 (mfd. by Katakura Chikkarin Co., Ltd.) and a melon (cultivar: Arles) seedling was raised in each tray. In this case, a seed treatment plot was prepared by immersing melon seeds in a Petri dish containing 10 mL (10^8 spores/mL) of the culture broth of strain BS-0105 prepared in Production Example 2, followed by bacterization at 30° C. for 2 hours. After the development of a cotyledon, the seedling was potted in a 12-cm polyethylene pot filled with Aisai No. 1. When three true leaves were completely developed, the following plots were prepared: plots on which drench or foliar spray, respectively, treatment with 1 mL ([…]) of the culture broth of strain BS-0105 prepared in Production Example 2 was carried out, and a plot on which foliar spray of 2 mL of a 2 ppm solution of Acibenzolar-S-methyl was carried out. As to the inoculation of the pathogenic bacterium (Pseudomonas syringae pv. lachrymans), 5 days after the treatment, a liquid containing the bacterial blight bacterium previously cultured on a potato semisynthetic medium (a decoction consisting of 300 g of potato and 1 L of distilled water, calcium nitrate tetrahydrate 0.5 g, disodium hydrogenphosphate dodecahydrate 2 g, peptone 5 g, sucrose 20 g, powdered agar 15 g) was inoculated on the whole of each leaf by spraying so that the reverse side of the leaf might be mainly treated. Inspection for infection was carried out by counting lesions in each of leaves from second to fourth leaves 8 days after the inoculation with the pathogenic bacterium. The protective value was calculated from the number of the lesions by the following equation to make a comparison with respect to control effect. Protective value={1−(number of lesions on treated plot/number of lesions on untreated plot)}×100

[3] = test system: cucumber bacterial blight bacterium (Pseudomonas syringae pv. lachrymans); test: Test Example 3: control effect of purified spores on cucumber bacterial blight; format: in vivo; conditions: cucumber second true leaf; 20 ppm

## CSC(=O)c1cccc2nnsc12 [Acibenzolar-S-methyl, S-methyl 1,2,3-benzothiazole-7-carboxylate]
[1]; Evaluation Example 6, elicitor treatment No
  Relative fluorescence: 86.9
[1]; Evaluation Example 6, elicitor treatment Yes
  Relative fluorescence: 664.8
[1]; Evaluation Example 7, elicitor No
  Relative fluorescence: 0.8
[1]; Evaluation Example 7, elicitor Yes
  Relative fluorescence: 377.5
[2]
  Protective value Average: 78.5
  Protective value Fourth leaf: 66.7
  Protective value Second leaf: 100.0
  Protective value Third leaf: 68.8
[3]
  Number of lesions per leaf: 0 b
  Protective value: 100
